The values below come from patent US7452693B2, “Discrete acyltransferases associated with type I polyketide synthases and methods of use” (Wisconsin Alumni Research Foundation, priority 2001, dated 2008).

Experiment [1] has as its system HELA S3, sarcoma 180, B-16, Colon 26, and leukemia P388. The settings on record: cited from earlier work.
The subject of a further experiment is S. atroolivaceus. Briefly: Growth inhibition of S. atroolivaceus by antibiotics. The experiment is classed as cell-based, Streptomyces atroolivaceus. The settings on record: for concentration for complete inhibition of growth: S. atroolivaceus; for sensitivity of S. atroolivaceus: in words. As to the method:
S. atroolivaceus grows very well at 30° C.; it doesn't grow at temperature beyond 35° C. […] Thus, E. coli—Streptomyces shuttle vectors pOJ260 (suicide vector, Am^R) and pKC1139 (self-replicating vector, Am^R) were chosen to make the gene-disruption constructs pYC12 and pYC20, respectively. The concentration of antibiotic (Am) for selection of transformants/exconjugates is 50 μg/ml.

On to `C/C1=C\[C@@H](O)C(=O)/C=C/C=C\c2csc(n2)[C@@H](C)NC(=O)C[C@@]2(CC1)[S+]([O-])SC(=O)[C@]2(C)O` (stereo partly shown) [Lnm, Leinamycin], for which the “activity against drug-resistant tumors” value in experiment [1] (murine models inoculated with tumors resistant to cisplatin, doxorubicin, mitomycin, or cyclophosphamide) is recorded as “active”. The antitumor activity entry in experiment [1] (murine tumor models in vivo) is listed as “potent antitumor activity”.
Consider `C=C(NC(=O)C(=C)NC(=O)c1csc(C2=N[C@@H]3c4csc(n4)[C@H]4NC(=O)c5csc(n5)[C@H]([C@](C)(O)[C@@H](C)O)NC(=O)[C@H]5CSC(=N5)/C(=C/C)NC(=O)[C@H]([C@@H](C)O)NC(=O)c5csc(n5)[C@]3(CC2)NC(=O)[C@H](C)NC(=O)C(=C)NC(=O)[C@H](C)NC(=O)[C@H]([C@@H](C)CC)N[C@@H]2C=Cc3c([C@H](C)O)cc(nc3[C@H]2O)C(=O)O[C@@H]4C)n1)C(N)=O` [thiostrepton], for which, in the experiment with S. atroolivaceus, the “concentration for complete inhibition of growth” value amounted to 3 µg/mL and the “sensitivity of S. atroolivaceus” value was “highly sensitive”.
On to `CN[C@@H]1[C@@H](O[C@H]2O[C@H](CO)[C@@H](N)[C@H](O)[C@H]2O)OC2C[C@@H](N)[C@@H](O[C@H]3[C@H](O)[C@@H](O)[C@H](N)C[C@@H]3N)OC2[C@@H]1O` (stereo partly shown) [apramycin], for which, in the experiment with S. atroolivaceus, the “concentration for complete inhibition of growth” value turned out to be 10 µg/mL and the “sensitivity of S. atroolivaceus” value was “sensitive”. Further, in the experiment with S. atroolivaceus (listed as apromycin), the “sensitivity of S. atroolivaceus” value is given as “highly sensitive”.
